Experimental data as given in patent publication US12098148B2, “Therapeutic compounds” (C4X Discovery Limited, priority 2018, dated 2024).
Read-outs that look alike come from different tables or passages of the source.

Legend:
[1] = molecular target: human KEAP1 (N-term, residues 321-609) (Homo sapiens, UniProt Q14145); test: biochemical;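 further: fluorescence polarization competition assay of Kelch domain binding to NRF2, 12-point 1:3 dilution series from 10 µM, read after 1 h at room temperature, floor 10 nM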
human KEAP1 (N-term, residues 321-609), sequence (Q14145 321-609): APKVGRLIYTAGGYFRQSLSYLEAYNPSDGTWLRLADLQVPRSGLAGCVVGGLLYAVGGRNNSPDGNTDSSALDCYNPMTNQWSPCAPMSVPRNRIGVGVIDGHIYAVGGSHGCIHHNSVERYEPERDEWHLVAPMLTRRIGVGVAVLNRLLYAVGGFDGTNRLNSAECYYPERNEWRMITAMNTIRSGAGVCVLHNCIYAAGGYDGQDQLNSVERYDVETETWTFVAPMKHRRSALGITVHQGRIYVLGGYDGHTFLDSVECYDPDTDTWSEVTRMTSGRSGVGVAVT

[2] = test system: NQO1 mRNA in BEAS-2B cells; test: Beas2B NQO1 mRNA cell based assay; parameters: species or system human; conditions: Homo sapiens, 24 h compound treatment, increase in NQO1 mRNA vs vehicle (0.1% DMSO), read-out: EC50
Outline: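 BEAS-2B human bronchial epithelial cells exposed to compound for 24 h at 37 °C, 5% CO2. NQO1 mRNA measured by one-step TaqMan RT-qPCR on unpurified lysates, normalized to β-actin; relative expression by ΔΔCT method.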

O=C(O)[C@H]1CCCC[C@H]1C(=O)N1CCc2c(Cl)ccc(OCc3nsc4ccccc34)c2[C@H]1CN1CCCC1=O [Example 68, (1S,2R)-2-((S)-8-(Benzo[d]isothiazol-3-ylmethoxy)-5-chloro-1-((2-oxopyrrolidin-1-yl)methyl)-1,2,3,4-tetrahydroisoquinoline-2-carbonyl)cyclohexane-1-carboxylic acid]
IC50 [1]: 8.4 nM
EC50 ([2]; BEAS-2B, 24 h): 32 nM

O=C(O)[C@H]1CCCC[C@H]1C(=O)N1CCc2c(Cl)ccc(OCc3ccccn3)c2[C@H]1CN1CCCC1=O [Example 69, (1S,2R)-2-((S)-5-chloro-1-((2-oxopyrrolidin-1-yl)methyl)-8-(pyridin-2-ylmethoxy)-1,2,3,4-tetrahydroisoquinoline-2-carbonyl) cyclohexane-1-carboxylic acid]
IC50 [1]: 6.9 nM
EC50 ([2]; BEAS-2B, 24 h): 140 nM

Cc1cc(COc2ccc(Cl)c3c2[C@@H](CN2CCCC2=O)N(C(=O)[C@@H]2CCCC[C@@H]2C(=O)O)CC3)ns1 [Example 70, (1S,2R)-2-((S)-5-Chloro-8-((5-methylisothiazol-3-yl)methoxy)-1-((2-oxopyrrolidin-1-yl)methyl)-1,2,3,4-tetrahydroisoquinoline-2-carbonyl) cyclohexane-1-carboxylic acid]
IC50 [1]: 5.9 nM
EC50 ([2]; BEAS-2B, 24 h): 55 nM

O=C(O)[C@H]1CCCC[C@H]1C(=O)N1CCc2c(Cl)ccc(OCc3ccsn3)c2[C@H]1CN1CCCC1=O [Example 71, (1S,2R)-2-((S)-5-Chloro-8-isothiazol-3-ylmethoxy)-1-((2-oxopyrrolidin-1-ylmethyl)-1,2,3,4-tetrahydroisoquinoline-2-carbonyl) cyclohexane-1-carboxylic acid]
IC50 [1]: 6.5 nM
EC50 ([2]; BEAS-2B, 24 h): 78 nM

CC(C)n1cc(COc2ccc(Br)c3c2[C@@H](CN2C[C@H](C)CC2=O)N(C(=O)[C@@H]2CCCC[C@@H]2C(=O)O)CC3)nn1 [Example 75, (1S,2R)-2-((S)-5-Bromo-8-((1-isopropyl-1H-1,2,3-triazol-4-yl)methoxy)-1-(((R)-4-methyl-2-oxopyrrolidin-1-yl)methyl)-1,2,3,4-tetrahydroisoquinoline-2-carbonyl) cyclohexane-1-carboxylic acid]
IC50 [1]: 6.5 nM
EC50 ([2]; BEAS-2B, 24 h): 8.3 nM

CC(C)n1cc(COc2ccc(Br)c3c2[C@@H](CN2CC4(CC4)CC2=O)N(C(=O)[C@@H]2CCCC[C@@H]2C(=O)O)CC3)nn1 [Example 76, (1S,2R)-2-((S)-5-bromo-8-((1-isopropyl-1H-1,2,3-triazol-4-yl)methoxy)-1-((6-oxo-5-azaspiro[2.4]heptan-5-yl)methyl)-1,2,3,4-tetrahydroisoquinoline-2-carbonyl) cyclohexane-1-carboxylic acid]
IC50 [1]: 6.7 nM
EC50 ([2]; BEAS-2B, 24 h): 2.5 nM

CC(C)n1cc(COc2ccc(Br)c3c2[C@@H](CN2C[C@@H](C)CC2=O)N(C(=O)[C@@H]2CCCC[C@@H]2C(=O)O)CC3)nn1 [Example 77, (1S,2R)-2-((S)-5-Bromo-8-((1-isopropyl-1H-1,2,3-triazol-4-yl)methoxy)-1-(((S)-4-methyl-2-oxopyrrolidin-1-yl)methyl)-1,2,3,4-tetrahydroisoquinoline-2-carbonyl) cyclohexane-1-carboxylic acid]
IC50 [1]: 7.8 nM
EC50 ([2]; BEAS-2B, 24 h): 6.7 nM

O=C(O)[C@H]1CCCC[C@H]1C(=O)N1CCc2c(Cl)ccc(OCc3cccnc3)c2[C@H]1CN1CCCC1=O [Example 78, (1S,2R)-2-((S)-5-Chloro-1-((2-oxopyrrolidin-1-yl)methyl)-8-(pyridin-3-ylmethoxy)-1,2,3,4-tetrahydroisoquinoline-2-carbonyl) cyclohexane-1-carboxylic acid]
IC50 [1]: 7.8 nM
EC50 ([2]; BEAS-2B, 24 h): 57 nM

CCn1nnc(COc2ccc(Cl)c3c2[C@@H](CN2CCCC2=O)N(C(=O)[C@@H]2CCCC[C@@H]2C(=O)O)CC3)c1C(F)F [Example 79, (1S,2R)-2-((S)-5-Chloro-8-((5-(difluoromethyl)-1-ethyl-1H-1,2,3-triazol-4-yl)methoxy)-1-((2-oxopyrrolidin-1-yl)methyl)-1,2,3,4-tetrahydroisoquinoline-2-carbonyl)cyclohexane-1-carboxylic acid]
IC50 [1]: 6.7 nM
EC50 ([2]; BEAS-2B, 24 h): 1.2 nM

C[C@H](CC(=O)O)C(=O)N1CCc2c(Cl)ccc(OCc3noc4ccccc34)c2[C@H]1CN1CCCC1=O [Example 80, (R)-4-((S)-8-(Benzo[d]isoxazol-3-ylmethoxy)-5-chloro-1-((2-oxopyrrolidin-1-yl)methyl)-3,4-dihydroisoquinolin-2(1H)-yl)-3-methyl-4-oxobutanoic acid]
IC50 [1]: 4.8 nM
EC50 ([2]; BEAS-2B, 24 h): 110 nM

Cn1nnc(COc2ccc(Cl)c3c2[C@@H](CN2CCCC2=O)N(C(=O)[C@@H]2CCCC[C@@H]2C(=O)O)CC3)c1C(F)F [Example 82, (1S,2R)-2-((S)-5-Chloro-8-((5-(difluoromethyl)-1-methyl-1H-1,2,3-triazol-4-yl)methoxy)-1-((2-oxopyrrolidin-1-yl)methyl)-1,2,3,4-tetrahydroisoquinoline-2-carbonyl) cyclohexane-1-carboxylic acid]
IC50 [1]: 7.7 nM
EC50 ([2]; BEAS-2B, 24 h): 1.3 nM

CC(C)c1nc(COc2ccc(Cl)c3c2[C@@H](CN2CCCC2=O)N(C(=O)[C@@H]2CCCC[C@@H]2C(=O)O)CC3)no1 [Example 83, (1S,2R)-2-((S)-5-Chloro-8-((5-isopropyl-1,2,4-oxadiazol-3-yl)methoxy)-1-((2-oxopyrrolidin-1-yl)methyl)-1,2,3,4-tetrahydroisoquinoline-2-carbonyl) cyclohexane-1-carboxylic acid]
IC50 [1]: 7.8 nM
EC50 ([2]; BEAS-2B, 24 h): 35 nM

Cc1cnn(C[C@@H]2c3c(OCc4nnn(C)c4C(F)F)ccc(Cl)c3CCN2C(=O)[C@@H]2CCCC[C@@H]2C(=O)O)c1 [Example 84, (1S,2R)-2-((S)-5-chloro-8-((5-(difluoromethyl)-1-methyl-1H-1,2,3-triazol-4-yl)methoxy)-1-((4-methyl-1H-pyrazol-1-yl)methyl)-1,2,3,4-tetrahydroisoquinoline-2-carbonyl)cyclohexane-1-carboxylic acid]
IC50 [1]: 6.1 nM
EC50 [2]: 36 nM

O=C(O)[C@H]1CCCC[C@H]1C(=O)N1CCc2c(Cl)ccc(OCc3cncnc3)c2[C@H]1CN1CCCC1=O [Example 85]
IC50 [1]: 9.9 nM
EC50 ([2]; BEAS-2B, 24 h): 34 nM

Cn1nnc(COc2ccc(Cl)c3c2[C@@H](CN2CCCC2=O)N(C(=O)[C@@H]2CCC[C@@H]2C(=O)O)CC3)c1C(F)F [Example 86, (1S,2R)-2-((S)-5-Chloro-8-((5-(difluoromethyl)-1-methyl-1H-1,2,3-triazol-4-yl)methoxy)-1-((2-oxopyrrolidin-1-yl)methyl)-1,2,3,4-tetrahydroisoquinoline-2-carbonyl)cyclopentane-1-carboxylic acid]
IC50 [1]: 5 nM
EC50 ([2]; BEAS-2B, 24 h): 8.3 nM

Cn1nnc(COc2ccc(Cl)c3c2[C@@H](CN2CCCC2=O)N(C(=O)[C@H]2CCC[C@H]2C(=O)O)CC3)c1C(F)F [Example 87, (1R,2S)-2-((S)-5-Chloro-8-((5-(difluoromethyl)-1-methyl-1H-1,2,3-triazol-4-yl)methoxy)-1-((2-oxopyrrolidin-1-yl)methyl)-1,2,3,4-tetrahydroisoquinoline-2-carbonyl)cyclopentane-1-carboxylic acid]
IC50 [1]: 150 nM
EC50 ([2]; BEAS-2B, 24 h): 300 nM

O=C(O)[C@H]1CCCC[C@H]1C(=O)N1CCc2c(Cl)ccc(OCc3cccnn3)c2[C@H]1CN1CCCC1=O [Example 88, (1S,2R)-2-((S)-5-Chloro-1-((2-oxopyrrolidin-1-yl)methyl)-8-(pyridazin-3-ylmethoxy)-1,2,3,4-tetrahydroisoquinoline-2-carbonyl) cyclohexane-1-carboxylic acid]
IC50 [1]: 11 nM
EC50 ([2]; BEAS-2B, 24 h): 78 nM

Cn1cnc2cc(COc3ccc(Cl)c4c3[C@@H](CN3CCCC3=O)N(C(=O)[C@@H]3CCCC[C@@H]3C(=O)O)CC4)cnc21 [Example 89, (1S,2R)-2-((S)-5-Chloro-8-((3-methyl-3H-imidazo[4,5-b]pyridin-6-yl)methoxy)-1-((2-oxopyrrolidin-1-yl)methyl)-1,2,3,4-tetrahydroisoquinoline-2-carbonyl) cyclohexane-1-carboxylic acid]
IC50 [1]: 8.2 nM
EC50 ([2]; BEAS-2B, 24 h): 5.1 nM

Cn1nnc2cc(COc3ccc(Cl)c4c3[C@@H](CN3CCCC3=O)N(C(=O)[C@@H]3CCCC[C@@H]3C(=O)O)CC4)ccc21 [Example 90, (1S,2R)-2-((S)-5-Chloro-8-((1-methyl-1H-benzo [d][1,2,3]triazol-5-yl)methoxy)-1-((2-oxopyrrolidin-1-yl)methyl)-1,2,3,4-tetrahydroisoquinoline-2-carbonyl)cyclohexane-1-carboxylic acid]
IC50 [1]: 9.1 nM
EC50 ([2]; BEAS-2B, 24 h): 8.1 nM

Cn1nnc(COc2ccc(Cl)c3c2[C@@H](CN2CCCC2=O)N(C(=O)[C@@H]2CCCC[C@]2(C)C(=O)O)CC3)c1C(F)F [Example 91, (1S,2R)-2-((S)-5-Chloro-8-((5-(difluoromethyl)-1-methyl-1H-1,2,3-triazol-4-yl)methoxy)-1-((2-oxopyrrolidin-1-yl)methyl)-1,2,3,4-tetrahydroisoquinoline-2-carbonyl)-1-methylcyclohexane-1-carboxylic acid]
IC50 [1]: 6.1 nM
EC50 ([2]; BEAS-2B, 24 h): 0.21 nM

O=C(O)[C@H]1CCCC[C@H]1C(=O)N1CCc2c(Cl)ccc(OCc3cn4cccnc4n3)c2[C@H]1CN1CCCC1=O [Example 92, (1S,2R)-2-((S)-5-Chloro-8-(imidazo[1,2-a]pyrimidin-2-ylmethoxy)-1-((2-oxopyrrolidin-1-yl)methyl)-1,2,3,4-tetrahydroisoquinoline-2-carbonyl) cyclohexane-1-carboxylic acid]
IC50 [1]: 15 nM
EC50 ([2]; BEAS-2B, 24 h): 180 nM

O=C(O)[C@H]1CCCC[C@H]1C(=O)N1CCc2c(Cl)ccc(OCc3noc4ncccc34)c2[C@H]1CN1CCCC1=O [Example 93, (1S,2R)-2-((S)-5-Chloro-8-(isoxazolo[5,4-b]pyridin-3-ylmethoxy)-1-((2-oxopyrrolidin-1-yl)methyl)-1,2,3,4-tetrahydroisoquinoline-2-carbonyl) cyclohexane-1-carboxylic acid]
IC50 [1]: 7.2 nM
EC50 ([2]; BEAS-2B, 24 h): 15 nM
